{"source": "patent US20250295625A1", "about": "“AGENT FOR PROMOTING ODONTOBLAST PROPAGATION AND DIFFERENTIATION” (SUN MEDICAL CO., LTD., priority 2019, published 2025)", "format_in_all_cases": "cell-based", "key": {"[1]": {"system": "MDPC-23 cell (rat dental papilla-derived cell), a rat odontoblast-like cell line", "assay": "Odontoblast proliferation test (CCK-8 assay)", "conditions": "FIG. 4", "protocol": "A Dulbecco's modified Eagle's medium (DMEM) added with 5% by mass of fetal bovine serum (FBS) was prepared. Then, an MDPC-23 cell (rat dental papilla-derived cell), which is a rat odontoblast-like cell line, was cultured in DMEM. Subsequently, 0.1 mL of DMEM where the MDPC-23 cells were cultured was injected into each well in a microplate (96 wells) so that 1000 MDPC-23 cells were distributed into each well.\nNext, the odontoblast proliferation/differentiation promoting agents of Examples 1 to 10 and ultrapure water (control) were individually added to corresponding wells. Then, the added mixture was allowed to stand at ordinary temperature (25° C.) for 5 days. Thereafter, the proliferation of the MDPC-23 cells was evaluated using a kit for measuring the number of living cells (CCK-8: Cell Counting Kit-8).\nIn the CCK-8 assay, a microplate reader (measurement wavelength: 450 nm) was used. The CCK-8 assay was repeated 6 times.\nThe results of the CCK-8 assay in Examples 1 to 5 and the control were shown in FIG. 3 and the results of the CCK-8 assay in Examples 4, 6 to 10 and the control were shown in FIG. 4."}, "[2]": {"system": "human dental pulp stem cell (hDPSC)", "assay": "Differentiation test of human dental pulp stem cells into odontoblasts (real-time PCR)", "conditions": "sample 5% by mass, 24 days, FIGS. 7A to 7E; for odontoblast-specific genes (BSP, rOPN, rOCB, rDSPP, and rDMP-1) mRNA expression: β-actin internal standard", "protocol": "A DMEM for culturing hDPSC was prepared in the same manner as in the measurement of cell survival rate. […] The concentration of the sample in each odontoblast proliferation/differentiation promoting agent was 5% by mass. • Calcium salt of […]: […] (Comparative Example 1), • Calcium hydroxide: CH (Comparative Example 2), • Mineral trioxide aggregate: […] As an internal standard, β-actin was used. mRNA expression levels of RNA-bone sialoprotein (BSP) are shown in FIG. 7A. mRNA expression levels of RNA-osteopontin (rOPN) are shown in FIG. 7B. mRNA expression levels of RNA-osteocalcin (rOCN) are shown in FIG. 7C. mRNA expression levels of RNA-dentin sialophosphoprotein (rDSPP) are shown in FIG. 7D. mRNA expression levels of RNA-dentin matrix protein (rDMP-1) are shown in FIG. 7E."}, "[3]": {"system": "human dental pulp stem cell (hDPSC)", "assay": "Calcification state of hDPSC culture (alkaline phosphatase measurement, alizarin red S staining)", "conditions": "ALPase at 14, 21, 28 days (FIG. 8), alizarin red S at 30 and 32 days (FIGS. 9A, 9B)", "protocol": "When DMEM containing the odontoblast proliferation/differentiation promoting agent of Example 12 and ultrapure water (control) therein was allowed to stand for 14, 21, and 28 days, the calcification state thus obtained was evaluated via alkaline phosphatase (ALPase) measurement.\nFurther, when DMEM containing the odontoblast proliferation/differentiation promoting agents of Example 12 and Comparative Examples 1 to 4 and ultrapure water (control) therein was allowed to stand for 30 and 32 days, the calcification state thus obtained was evaluated via alizarin red S staining measurement. The evaluation of the calcification state was performed using one-way ANOVA and Tukey's HSD post-hoc test with a significance level set at 1%"}, "[4]": {"system": "mesenchymal stem cell (MSC)", "assay": "Differentiation test of mesenchymal stem cells into odontoblasts (real-time PCR)", "conditions": "MSC, 10, 17, and 24 days", "protocol": "A DMEM for culturing mesenchymal stem cell (MSC) was prepared in the same manner as the measurement of cell survival rate, except that hDPSC was replaced with MSC.\nNext, the odontoblast proliferation/differentiation promoting agent of Example 12 and ultrapure water (control) were individually dissolved directly in the DMEM for culturing MSC. Then, DMEM was subjected to real-time PCR when allowed to stand for 10, 17, and 24 days. As an internal standard, β-actin was used.\nmRNA expression levels of RNA-bone sialoprotein (BSP) are shown in FIG. 8A. mRNA expression levels of RNA-dentin matrix protein (rDMP-1) are shown in FIG. 8B."}}, "data": [{"smiles": "C=C(C)C(=O)OCCOC(=O)c1ccc(C(=O)[O-])c(C(=O)[O-])c1.[Ca+2]", "note": "[C-MET, calcium salt of 4-methacryloyloxyethyltrimellitic acid]", "values": [{"measurement": "effect of promoting proliferation and/or differentiation of the MDPC-23 cells", "setting": "[1]; as the concentration of C-MET was increased to 500 μg/mL (Example 7)", "value": "gradually improved"}, {"measurement": "effect of promoting proliferation and/or differentiation of the MDPC-23 cells", "setting": "[1]; when the concentration of C-MET exceeded 500 μg/mL", "value": "not found any further improvement"}, {"measurement": "differentiation of hDPSC into odontoblasts", "setting": "[2]", "value": "promoted"}, {"measurement": "odontoblast-specific genes (BSP, rOPN, rOCB, rDSPP, and rDMP-1) mRNA expression", "setting": "[2]", "value": "increased"}, {"measurement": "calcification", "setting": "[3]", "value": "promoted"}, {"measurement": "differentiation of MSC into odontoblasts", "setting": "[4]", "value": "promoted"}, {"measurement": "odontoblast-specific genes (BSP, rDMP-1) mRNA expression", "setting": "[4]; β-actin internal standard", "value": "increased"}]}, {"smiles": "[Ca+2].[OH-].[OH-]", "note": "[CH, Calcium hydroxide, reference compound]", "values": [{"measurement": "differentiation of hDPSC into odontoblasts", "setting": "[2]", "value": "not observed"}, {"measurement": "odontoblast-specific genes (BSP, rOPN, rOCB, rDSPP, and rDMP-1) mRNA expression", "setting": "[2]", "value": "no increase"}, {"measurement": "calcification", "setting": "[3]", "value": "calcification was found"}]}, {"smiles": "[Ca+2].[Cl-].[Cl-]", "note": "[CaCl2, Calcium chloride]", "values": [{"measurement": "calcification", "setting": "[3]", "value": "calcification was found"}]}]}
